The record followed here is PubChem BioAssay (NCI).

Test in all cases: DTP human tumour cell line panel, 48 h
Assay [1] relates to OVCAR-4 ovarian.
Assay [2] has as its system SK-MEL-5 melanoma.
Assay [3] concerns HCC-2998 colon.
In assay [4] the test system is K-562 leukemia.
In assay [5] the test system is SF-539 CNS.
The subject of assay [6] is SF-268 CNS.
Assay [7] relates to SF-295 CNS.
Assay [8] deals with A549 NSCLC.
The test system of assay [9] is PC-3 prostate.
Assay [10] concerns NCI/ADR-RES ovarian.
In assay [11] the test system is COLO 205 colon.
The subject of assay [12] is SK-OV-3 ovarian.
For assay [13], the system named is OVCAR-8 ovarian.
Assay [14] deals with SNB-75 CNS.
Assay [15] has as its system UACC-257 melanoma.
Assay [16] relates to EKVX NSCLC.
Assay [17] concerns NCI-H460 lung.
Assay [18] has as its system HL-60(TB) leukemia.
In assay [19] the test system is CAKI-1 renal.
The test system of assay [20] is A498 renal.

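The compound was tested at five concentrations on cells cultured in 96-well plates, with a 48-hour exposure period. TGI marks complete inhibition of growth.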

For the compound `CCOC(=O)N/N=C(\Cc1ccc([N+](=O)[O-])cc1)OCC`, the TGI in [1], in assay [2], in [3], in assay [4], in assay [5] and in assay [6] was more than 100 µM in each case. Moreover, the total growth inhibition concentration (TGI) in assay [7], in [8], in [9], in assay [10], in assay [11] and in assay [12] was more than 100 µM throughout. Further, the total growth inhibition concentration (TGI) in assay [13], in [14], in [15] and in assay [16] was more than 100 µM in each case.

Take `CNC(=O)C1CCCN1C(=O)C(Cc1cnc[nH]1)NC(=O)C1CCC(=O)N1` (stereo not given): the TGI in assay [1], in [17], in assay [2], in assay [3], in [4] and in [6] was more than 100 µM each time. For the same compound, the TGI in assay [7], in assay [8], in [9], in assay [18], in assay [10] and in assay [11] was more than 100 µM throughout. In addition, the TGI in assay [12], in [13], in assay [14], in [19] and in assay [16] was more than 100 µM throughout.

In the case of `COC(=O)c1ccc(COC(=O)N2C=CCC2C(=O)O)cc1` (stereo not given), the TGI in assay [17], in assay [2], in assay [3], in assay [4], in [5] and in [6] was more than 100 µM each time. Also, the TGI in assay [7], in [8], in assay [9], in assay [10], in [11] and in assay [12] was more than 100 µM throughout. Further, the TGI in assay [13], in assay [14], in [19] and in [15] was more than 100 µM each time.

`Cc1cn([C@H]2C[C@@H]3[C@@H](COC(CCl)N3O)O2)c(=O)[nH]c1=O` (stereo not given in full): the TGI in [1], in assay [17], in [2], in assay [4], in assay [5] and in assay [6] was more than 100 µM each time. In addition, the TGI in assay [7], in assay [8], in [9], in assay [18], in assay [10] and in assay [11] was more than 100 µM each time. The TGI in [20], in assay [12], in assay [13], in assay [14], in assay [19] and in assay [15] was more than 100 µM throughout. The TGI (in general, the concentration giving total growth inhibition) in assay [16] was more than 100 µM.

Regarding `CCC12CC(c3ccccc3)C(C(=O)N1)C(=O)N2` (stereo not given), the TGI in assay [1], in [17], in assay [2], in assay [4], in [5] and in [6] was more than 100 µM in each case. Moreover, the TGI in assay [7], in assay [8], in assay [9], in assay [18], in assay [10] and in [11] was more than 100 µM in each case. The TGI in assay [20], in assay [12], in assay [13], in [14], in assay [19] and in assay [15] was more than 100 µM throughout. Further, the TGI in assay [16] is more than 100 µM.

Consider `CC(C)n1c(=O)[nH]n(-c2ccccc2)c1=O`, for which the TGI in assay [1], in [17], in assay [2], in assay [4], in assay [5] and in assay [6] was more than 100 µM each time. In addition, the TGI in assay [7], in assay [8], in assay [9], in [18], in assay [10] and in [11] was more than 100 µM in each case. Further, the TGI in [20], in [12], in assay [13], in assay [14], in [19] and in assay [15] was more than 100 µM throughout. Besides, in assay [16], the TGI is more than 100 µM.

Regarding `C/C(=N\Nc1nc2ccccc2s1)c1cnccn1`, the TGI in assay [1] was more than 100 µM; in assay [17], 15 µM; in assay [2], 16 µM; in assay [3], 31.9 µM; in assay [4], more than 34.1 µM; in assay [5], 36.7 µM. For the same compound, the total growth inhibition concentration (TGI) in [6] is more than 22.7 µM; in assay [7], more than 23.5 µM; in assay [8], more than 65.5 µM; in [9], more than 67.4 µM; in assay [10], 4.88 µM; in assay [11], more than 36.9 µM. Moreover, the TGI in assay [12] is more than 27.7 µM; in assay [13], 5.86 µM; in [14], more than 31.3 µM; in assay [19] it was more than 42.2 µM; in assay [15] it was more than 100 µM; in assay [16], 5 µM.

With `Cc1cc(O)c(C=NC(=S)c2ccccc2)c(=O)o1`, the TGI in [1], in assay [17], in assay [2], in assay [3], in [5] and in assay [7] was more than 100 µM each time. Also, the TGI in [8], in [9], in assay [10], in assay [11], in [12] and in assay [13] was more than 100 µM throughout. In addition, the TGI in [14], in [19], in [15] and in [16] was more than 100 µM in each case.
